pEC50: −log10 of the molar value. Starred links: 1 amine or outer side, 2 acyl side, 3 side chain; linkers in the order of their positions; H or OH if unused. Non-standard residues stand in square brackets, D forms with d. Residues, ends and D or L forms follow the SMILES beside them. Groups on a side chain read outwards from the residue. *: point of attachment. C20 diacid = O=C(O)CCCCCCCCCCCCCCCCCCC(=O)*; C18 diacid = O=C(O)CCCCCCCCCCCCCCCCC(=O)*; γGlu = O=C(O)[C@H](CCC(=O)[*:2])N[*:1]; αMeF = C[C@](N)(Cc1ccccc1)C(=O)O; AEEA = NCCOCCOCC(=O)O; Aib = CC(C)(N)C(=O)O
Columns and labels:
[1] = target: human GLP-1 receptor (hGLP-1R) (Homo sapiens, UniProt P43220); assay: cAMP production (HTRF) in CHO cells expressing hGLP-1R; type: cell-based; set-up: expressed in transfected cells; details: for pEC50: Table 6, peptides modified at position 17, cAMP in CHO hGLP-1R cells, geometric mean, read-out: hGLP-1R EC50; for % Relative Potency Ratio: Table 6, % GLP-1R activity relative to GLP-1 / % GlucR activity relative to glucagon
In short: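 Read-out: HTRF cAMP (anti-cAMP cryptate donor, cAMP-d2 acceptor in conjugate/lysis buffer), converted to % Delta F and fitted by 4-parameter logistic for EC50. Cell densities were 1×10^5 cells/mL (hGLP-1R) or 2×10^5 cells/mL (hGCGR). Stimulation lasted 30 min at room temperature.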

[2] = target: human glucagon receptor (hGCGR) (Homo sapiens, UniProt P47871); assay: cAMP production (HTRF) in CHO cells expressing hGCGR; type: cell-based; set-up: expressed in transfected cells; details: Table 6, peptides modified at position 17; cAMP in CHO hGCGR cells; geometric mean; read-out: hGluc-R EC50
Experimental: Cells were re-suspended in assay buffer at a batch-dependent optimized concentration (typically hGLP-1R cells at 1×10^5 cells/mL, hGCGR cells at 2×10^5 cells/mL).
Cells were added to the assay plate using a multidrop dispenser and incubated at room temperature for 30 minutes before measuring the cAMP level using a cAMP dynamic 2 homogeneous time resolved Fluorescence (HTRF) kit (Cisbio Bioassays #62AM4PEJ) following the two-step protocol as per manufacturer's recommendations. In brief, anti-cAMP cryptate (donor fluorophore) and cAMP-d2 (acceptor fluorophore) were made up separately by diluting each 1 in 20 in conjugate and lysis buffer provided in the kit. Anti-CAMP cryptate was added to all wells of the assay plate, followed by cAMP-d2 added to all wells except non-specific binding (NSB) wells (to which conjugate and lysis buffer was added).
Data was transformed to % Delta F as described in the manufacturer's guidelines and analyzed by 4-parameter logistic fit to determine EC50 values.

Chain of human glucagon receptor (hGCGR) (P47871 26-477): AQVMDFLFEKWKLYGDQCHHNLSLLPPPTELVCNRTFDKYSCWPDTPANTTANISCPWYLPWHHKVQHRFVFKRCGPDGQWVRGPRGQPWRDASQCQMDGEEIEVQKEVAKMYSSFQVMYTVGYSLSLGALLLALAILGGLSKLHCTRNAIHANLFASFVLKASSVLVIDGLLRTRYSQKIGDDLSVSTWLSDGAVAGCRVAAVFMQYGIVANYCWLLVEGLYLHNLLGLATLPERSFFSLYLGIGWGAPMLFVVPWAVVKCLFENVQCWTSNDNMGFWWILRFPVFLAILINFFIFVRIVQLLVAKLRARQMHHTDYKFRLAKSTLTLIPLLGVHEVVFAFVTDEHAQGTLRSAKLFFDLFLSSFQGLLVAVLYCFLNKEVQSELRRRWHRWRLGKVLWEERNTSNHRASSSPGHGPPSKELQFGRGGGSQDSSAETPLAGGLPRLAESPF
Chain of human GLP-1 receptor (hGLP-1R) (P43220 24-463): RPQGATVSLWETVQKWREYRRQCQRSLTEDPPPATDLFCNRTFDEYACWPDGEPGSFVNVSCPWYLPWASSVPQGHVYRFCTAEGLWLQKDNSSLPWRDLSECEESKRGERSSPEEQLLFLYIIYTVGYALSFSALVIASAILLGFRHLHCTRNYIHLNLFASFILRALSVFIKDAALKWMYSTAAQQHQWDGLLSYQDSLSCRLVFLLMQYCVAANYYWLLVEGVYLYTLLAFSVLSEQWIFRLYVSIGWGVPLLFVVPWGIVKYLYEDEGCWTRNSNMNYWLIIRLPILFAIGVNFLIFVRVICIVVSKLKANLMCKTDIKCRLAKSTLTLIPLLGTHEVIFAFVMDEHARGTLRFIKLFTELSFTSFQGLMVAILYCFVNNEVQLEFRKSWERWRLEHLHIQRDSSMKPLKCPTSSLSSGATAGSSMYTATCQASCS

Row | SMILES | pEC50 [1] | % Relative Potency Ratio [1] | pEC50 [2]
1 | CC[C@H](C)[C@H](NC(=O)C(C)(C)NC(=O)[C@H](CCC(N)=O)NC(=O)[C@@H](NC(=O)[C@H](Cc1ccccc1)NC(=O)[C@H](CC(=O)O)NC(=O)[C@H](CCC(N)=O)NC(=O)[C@H](C)NC(=O)[C@H](C)NC(=O)[C@H](CCCCNC(=O)COCCOCCNC(=O)COCCOCCNC(=O)CC[C@H](NC(=O)CCCCCCCCCCCCCCCCC(=O)O)C(=O)O)NC(=O)[C@H](CO)NC(=O)[C@H](CC(=O)O)NC(=O)[C@H](CC(C)C)NC(=O)[C@](C)(Cc1ccccc1)NC(=O)[C@H](CCCCN)NC(=O)[C@H](CO)NC(=O)[C@@H](NC(=O)[C@H](CC(=O)O)NC(=O)[C@H](CO)NC(=O)[C@@H](NC(=O)[C@](C)(Cc1ccccc1)NC(=O)[C@H](CO)NC(=O)CNC(=O)[C@H](Cc1c[nH]cn1)NC(=O)C(C)(C)NC(=O)[C@@H](N)Cc1c[nH]cn1)[C@@H](C)O)C(C)C)C(C)C)C(=O)N[C@@H](C)C(=O)N[C@@H](CC(N)=O)C(=O)N[C@H](C(N)=O)[C@@H](C)O [Peptide 11] (H-H[Aib]HGS[αMeF]TSDVSK[αMeF]LDSK([AEEA-AEEA-γGlu-C18 diacid])AAQDFVQ[Aib]IANT-NH2) | 9.81 | 1.5 | 9.93
2 | CC[C@H](C)[C@H](NC(=O)C(C)(C)NC(=O)[C@H](CCC(N)=O)NC(=O)[C@@H](NC(=O)[C@H](Cc1ccccc1)NC(=O)[C@H](CC(=O)O)NC(=O)[C@H](CCCNC(=N)N)NC(=O)[C@H](C)NC(=O)[C@H](C)NC(=O)[C@H](CCCCNC(=O)COCCOCCNC(=O)COCCOCCNC(=O)CC[C@H](NC(=O)CCCCCCCCCCCCCCCCC(=O)O)C(=O)O)NC(=O)[C@H](CO)NC(=O)[C@H](CC(=O)O)NC(=O)[C@H](CC(C)C)NC(=O)[C@](C)(Cc1ccccc1)NC(=O)[C@H](CCCCN)NC(=O)[C@H](CO)NC(=O)[C@@H](NC(=O)[C@H](CC(=O)O)NC(=O)[C@H](CO)NC(=O)[C@@H](NC(=O)[C@](C)(Cc1ccccc1)NC(=O)[C@H](CO)NC(=O)CNC(=O)[C@H](Cc1c[nH]cn1)NC(=O)C(C)(C)NC(=O)[C@@H](N)Cc1c[nH]cn1)[C@@H](C)O)C(C)C)C(C)C)C(=O)N[C@@H](C)C(=O)N[C@@H](CC(N)=O)C(=O)N[C@H](C(N)=O)[C@@H](C)O [Peptide 12] (H-H[Aib]HGS[αMeF]TSDVSK[αMeF]LDSK([AEEA-AEEA-γGlu-C18 diacid])AARDFVQ[Aib]IANT-NH2; N-terminus assumed) | 10.84 | 6.5 | 10.32
3 | CC[C@H](C)[C@H](NC(=O)C(C)(C)NC(=O)[C@H](CCC(N)=O)NC(=O)[C@@H](NC(=O)[C@](C)(Cc1ccccc1)NC(=O)[C@H](CC(=O)O)NC(=O)[C@H](CCCNC(=N)N)NC(=O)[C@H](C)NC(=O)[C@H](C)NC(=O)[C@H](CCCCNC(=O)COCCOCCNC(=O)COCCOCCNC(=O)CC[C@H](NC(=O)CCCCCCCCCCCCCCCCC(=O)O)C(=O)O)NC(=O)[C@H](CO)NC(=O)[C@H](CC(=O)O)NC(=O)[C@H](CC(C)C)NC(=O)[C@](C)(Cc1ccccc1)NC(=O)[C@H](CCCCN)NC(=O)[C@H](CO)NC(=O)[C@@H](NC(=O)[C@H](CC(=O)O)NC(=O)[C@H](CO)NC(=O)[C@@H](NC(=O)[C@](C)(Cc1ccccc1)NC(=O)[C@H](CO)NC(=O)CNC(=O)[C@H](Cc1c[nH]cn1)NC(=O)C(C)(C)NC(=O)[C@@H](N)Cc1c[nH]cn1)[C@@H](C)O)C(C)C)C(C)C)C(=O)N[C@@H](C)C(=O)N[C@@H](CC(N)=O)C(=O)N[C@H](C(N)=O)[C@@H](C)O [Peptide 13] (H-H[Aib]HGS[αMeF]TSDVSK[αMeF]LDSK([AEEA-AEEA-γGlu-C18 diacid])AARD[αMeF]VQ[Aib]IANT-NH2; N-terminus assumed) | 10.80 | 5.5 | 10.36
4 | CC[C@H](C)[C@H](NC(=O)C(C)(C)NC(=O)[C@H](CCC(N)=O)NC(=O)[C@@H](NC(=O)[C@](C)(Cc1ccccc1)NC(=O)[C@H](CC(=O)O)NC(=O)[C@H](CCCNC(=N)N)NC(=O)[C@H](C)NC(=O)[C@H](C)NC(=O)[C@H](CCCCNC(=O)COCCOCCNC(=O)COCCOCCNC(=O)CC[C@H](NC(=O)CC[C@H](NC(=O)CCCCCCCCCCCCCCCCCCC(=O)O)C(=O)O)C(=O)O)NC(=O)[C@H](CO)NC(=O)[C@H](CC(=O)O)NC(=O)[C@H](CC(C)C)NC(=O)[C@](C)(Cc1ccccc1)NC(=O)[C@H](CCCCN)NC(=O)[C@H](CO)NC(=O)[C@@H](NC(=O)[C@H](CC(=O)O)NC(=O)[C@H](CO)NC(=O)[C@@H](NC(=O)[C@](C)(Cc1ccccc1)NC(=O)[C@H](CO)NC(=O)CNC(=O)[C@H](Cc1c[nH]cn1)NC(=O)C(C)(C)NC(=O)[C@@H](N)Cc1c[nH]cn1)[C@@H](C)O)C(C)C)C(C)C)C(=O)N[C@@H](C)C(=O)N[C@@H](CC(N)=O)C(=O)N[C@H](C(N)=O)[C@@H](C)O [Peptide 14] (H-H[Aib]HGS[αMeF]TSDVSK[αMeF]LDSK([AEEA-AEEA-γGlu-γGlu-C20 diacid])AARD[αMeF]VQ[Aib]IANT-NH2; N-terminus assumed) | 10.03 | 9.7 | 9.34
5 | CC[C@H](C)[C@H](NC(=O)C(C)(C)NC(=O)[C@H](C)NC(=O)[C@@H](NC(=O)[C@](C)(Cc1ccccc1)NC(=O)[C@H](CC(=O)O)NC(=O)[C@H](CCCNC(=N)N)NC(=O)[C@H](C)NC(=O)[C@H](C)NC(=O)[C@H](CCCCNC(=O)COCCOCCNC(=O)COCCOCCNC(=O)CC[C@H](NC(=O)CCCCCCCCCCCCCCCCC(=O)O)C(=O)O)NC(=O)[C@H](CO)NC(=O)[C@H](CC(=O)O)NC(=O)[C@H](CC(C)C)NC(=O)[C@](C)(Cc1ccccc1)NC(=O)[C@H](CCCCN)NC(=O)[C@H](CO)NC(=O)[C@@H](NC(=O)[C@H](CC(=O)O)NC(=O)[C@H](CO)NC(=O)[C@@H](NC(=O)[C@](C)(Cc1ccccc1)NC(=O)[C@H](CO)NC(=O)CNC(=O)[C@H](Cc1c[nH]cn1)NC(=O)C(C)(C)NC(=O)[C@@H](N)Cc1c[nH]cn1)[C@@H](C)O)C(C)C)[C@@H](C)CC)C(=O)N[C@@H](C)C(=O)N[C@@H](CC(N)=O)C(=O)N[C@H](C(N)=O)[C@@H](C)O [Peptide 16] (H-H[Aib]HGS[αMeF]TSDVSK[αMeF]LDSK([AEEA-AEEA-γGlu-C18 diacid])AARD[αMeF]IA[Aib]IANT-NH2; N-terminus assumed) | 10.48 | 6.3 | 9.98
6 | CC[C@H](C)[C@H](NC(=O)[C@H](CO)NC(=O)[C@H](CCC(=O)O)NC(=O)[C@@H](NC(=O)[C@](C)(Cc1ccccc1)NC(=O)[C@H](CC(=O)O)NC(=O)[C@H](CCCNC(=N)N)NC(=O)[C@H](C)NC(=O)[C@H](C)NC(=O)[C@H](CCCCNC(=O)COCCOCCNC(=O)COCCOCCNC(=O)CC[C@H](NC(=O)CCCCCCCCCCCCCCCCC(=O)O)C(=O)O)NC(=O)[C@H](CO)NC(=O)[C@H](CC(=O)O)NC(=O)[C@H](CC(C)C)NC(=O)[C@](C)(Cc1ccccc1)NC(=O)[C@H](CCCCN)NC(=O)[C@H](CO)NC(=O)[C@@H](NC(=O)[C@H](CC(=O)O)NC(=O)[C@H](CO)NC(=O)[C@@H](NC(=O)[C@](C)(Cc1ccccc1)NC(=O)[C@H](CO)NC(=O)CNC(=O)[C@H](Cc1c[nH]cn1)NC(=O)C(C)(C)NC(=O)[C@@H](N)Cc1c[nH]cn1)[C@@H](C)O)C(C)C)C(C)C)C(=O)N[C@@H](C)C(=O)N[C@@H](CC(N)=O)C(=O)N[C@H](C(N)=O)[C@@H](C)O [Peptide 17] (H-H[Aib]HGS[αMeF]TSDVSK[αMeF]LDSK([AEEA-AEEA-γGlu-C18 diacid])AARD[αMeF]VESIANT-NH2; N-terminus assumed) | 10.35 | 5.9 | 9.87
7 | CC[C@H](C)[C@H](NC(=O)[C@H](CO)NC(=O)[C@H](CCC(N)=O)NC(=O)[C@@H](NC(=O)[C@](C)(Cc1ccccc1)NC(=O)[C@H](CC(=O)O)NC(=O)[C@H](CCCNC(=N)N)NC(=O)[C@H](C)NC(=O)[C@H](C)NC(=O)[C@H](CCCCNC(=O)COCCOCCNC(=O)COCCOCCNC(=O)CC[C@H](NC(=O)CCCCCCCCCCCCCCCCC(=O)O)C(=O)O)NC(=O)[C@H](CO)NC(=O)[C@H](CC(=O)O)NC(=O)[C@H](CC(C)C)NC(=O)[C@](C)(Cc1ccccc1)NC(=O)[C@H](CCCCN)NC(=O)[C@H](CO)NC(=O)[C@@H](NC(=O)[C@H](CC(=O)O)NC(=O)[C@H](CO)NC(=O)[C@@H](NC(=O)[C@](C)(Cc1ccccc1)NC(=O)[C@H](CO)NC(=O)CNC(=O)[C@H](Cc1c[nH]cn1)NC(=O)C(C)(C)NC(=O)[C@@H](N)Cc1c[nH]cn1)[C@@H](C)O)C(C)C)C(C)C)C(=O)N[C@@H](C)C(=O)N[C@@H](CC(N)=O)C(=O)N[C@H](C(N)=O)[C@@H](C)O [Peptide 18] (H-H[Aib]HGS[αMeF]TSDVSK[αMeF]LDSK([AEEA-AEEA-γGlu-C18 diacid])AARD[αMeF]VQSIANT-NH2; N-terminus assumed) | 10.69 | 11.7 | 9.92

Reference: patent US20250353891A1 (MEDIMMUNE LIMITED, priority 2022, published 2025)
